Test results reported in ChEMBL document CHEMBL1138436, “Biological activity and chemistry of taxoids from the Japanese yew, Taxus cuspidata” (J Nat Prod, 2004).

Experiments:
Assay type in all cases: functional
MKN-7 = assay: Growth inhibition of human MKN7 cells
HT-29 = assay: Growth inhibition of human HT-29 cells
SNB-78 = assay: Growth inhibition of human SNB78 cells
A549 = assay: Growth inhibition of human A549 cells
MKN-74 = assay: Growth inhibition of human MKN74 cells
OVCAR-5 = assay: Growth inhibition of human OVCAR5 cells
MKN-45 = assay: Growth inhibition of human MKN45 cells
NCI-H23 = assay: Growth inhibition of human NCI-H23 cells
HCT-15 = assay: Growth inhibition of human HCT15 cells
SF-539 = assay: Growth inhibition of human SF539 cells
SNB-75 = assay: Growth inhibition of human SNB75 cells
OVCAR-4 = assay: Growth inhibition of human OVCAR4 cells
St-4 = assay: Growth inhibition of human St-4 cells
OVCAR-3 = assay: Growth inhibition of human OVCAR-3 cells
HCT-116 = assay: Growth inhibition of human HCT116 cells
[1] = Growth inhibition of human RXF631L cells
KM12 = assay: Growth inhibition of human KM12 cells
U-251 = assay: Growth inhibition of human U251 cells
MCF7 = assay: Growth inhibition of human MCF7 cells
DMS-114 = assay: Growth inhibition of human DMS114 cells
[2] = Growth inhibition of human BSY1 cells
[3] = Growth inhibition of human HBC4 cells
[4] = Growth inhibition of human MKN1 cells
PC-3 = assay: Growth inhibition of human PC3 cells
SF-295 = assay: Growth inhibition of human SF295 cells
NCI-H522 = assay: Growth inhibition of human NCI-H522 cells
DMS-273 = assay: Growth inhibition of human DMS273 cells
ACHN = assay: Growth inhibition of human ACHN cells
[5] = read-out: LC50 (the source's name)
[6] = read-out: pLC50 (the source's name) (converted)

Question: What does the source list for `CC(=O)O[C@H]1C[C@H]2OC[C@@]2(OC(C)=O)[C@H]2[C@H](OC(=O)c3ccccc3)[C@]3(O)C[C@H](O)C(C)=C([C@@H](O)[C@H](O)[C@]12C)C3(C)C` [TAXUSPINE E]?
Answer: TGI (MKN-7): 93 µM; GI50 (MKN-7; read-out: GI50): 18 µM; CC50 (MKN-7; [5]): > 100 µM; GI50 (MKN-7; read-out: pGI50 (converted)): 18.2 µM; GI50 (HT-29; read-out: GI50): 28 µM; CC50 (HT-29; [5]): > 100 µM; TGI (HT-29; read-out: TGI): > 100 µM; GI50 (HT-29; read-out: pGI50 (converted)): 27.5 µM; TGI (HT-29; read-out: pTGI (converted)): 100 µM; GI50 (SNB-78; read-out: GI50): 50 µM; CC50 (SNB-78; [5]): > 100 µM; TGI (SNB-78; read-out: TGI): > 100 µM; GI50 (SNB-78; read-out: pGI50 (converted)): 50.1 µM; CC50 (SNB-78; [6]): 100 µM; TGI (SNB-78; read-out: pTGI (converted)): 100 µM; GI50 (A549; read-out: GI50): 30 µM; CC50 (A549; [5]): 100 µM; TGI (A549; read-out: TGI): > 100 µM; GI50 (A549; read-out: pGI50 (converted)): 30.2 µM; CC50 (A549; [6]): 100 µM; TGI (A549; read-out: pTGI (converted)): 100 µM; GI50 (MKN-74; read-out: GI50): 30 µM; CC50 (MKN-74; [5]): > 100 µM; TGI (MKN-74; read-out: TGI): > 100 µM; GI50 (MKN-74; read-out: pGI50 (converted)): 30.2 µM; CC50 (MKN-74; [6]): 100 µM; TGI (MKN-74; read-out: pTGI (converted)): 100 µM; GI50 (OVCAR-5; read-out: GI50): 48 µM; CC50 (OVCAR-5; [5]): > 100 µM; TGI (OVCAR-5; read-out: TGI): > 100 µM; GI50 (OVCAR-5; read-out: pGI50 (converted)): 47.9 µM; CC50 (OVCAR-5; [6]): 100 µM; TGI (OVCAR-5; read-out: pTGI (converted)): 100 µM; GI50 (MKN-45; read-out: GI50): 27 µM; CC50 (MKN-45; [5]): > 100 µM; TGI (MKN-45; read-out: TGI): > 100 µM; GI50 (MKN-45; read-out: pGI50 (converted)): 26.9 µM; CC50 (MKN-45; [6]): 100 µM; TGI (MKN-45; read-out: pTGI (converted)): 100 µM; GI50 (NCI-H23; read-out: GI50): 23 µM; CC50 (NCI-H23; [5]): 100 µM; TGI (NCI-H23; read-out: TGI): 69 µM; GI50 (NCI-H23; read-out: pGI50 (converted)): 22.9 µM; CC50 (NCI-H23; [6]): 100 µM; TGI (NCI-H23; read-out: pTGI (converted)): 69.2 µM; GI50 (HCT-15; read-out: GI50): 32 µM; CC50 (HCT-15; [5]): > 100 µM; TGI (HCT-15; read-out: TGI): > 100 µM; GI50 (HCT-15; read-out: pGI50 (converted)): 32.4 µM; CC50 (HCT-15; [6]): 100 µM; TGI (HCT-15; read-out: pTGI (converted)): 100 µM; GI50 (SF-539; read-out: GI50): 45 µM; CC50 (SF-539; [5]): > 100 µM; TGI (SF-539; read-out: TGI): > 100 µM; GI50 (SF-539; read-out: pGI50 (converted)): 44.7 µM; CC50 (SF-539; [6]): 100 µM; TGI (SF-539; read-out: pTGI (converted)): 100 µM; GI50 (SNB-75; read-out: GI50): 9 µM; CC50 (SNB-75; [5]): 100 µM; TGI (SNB-75; read-out: TGI): 55 µM; GI50 (SNB-75; read-out: pGI50 (converted)): 8.91 µM; CC50 (SNB-75; [6]): 100 µM; TGI (SNB-75; read-out: pTGI (converted)): 55 µM; GI50 (OVCAR-4; read-out: GI50): 21 µM; CC50 (OVCAR-4; [5]): > 100 µM; TGI (OVCAR-4; read-out: TGI): > 100 µM; GI50 (OVCAR-4; read-out: pGI50 (converted)): 21.4 µM; CC50 (OVCAR-4; [6]): 100 µM; TGI (OVCAR-4; read-out: pTGI (converted)): 100 µM; GI50 (St-4; read-out: GI50): 33 µM; CC50 (St-4; [5]): > 100 µM; TGI (St-4; read-out: TGI): > 100 µM; GI50 (St-4; read-out: pGI50 (converted)): 33.1 µM; CC50 (St-4; [6]): 100 µM; TGI (St-4; read-out: pTGI (converted)): 100 µM; GI50 (OVCAR-3; read-out: GI50): 21 µM; CC50 (OVCAR-3; [5]): > 100 µM; TGI (OVCAR-3; read-out: TGI): 99 µM; GI50 (OVCAR-3; read-out: pGI50 (converted)): 20.4 µM; CC50 (OVCAR-3; [6]): 100 µM; TGI (OVCAR-3; read-out: pTGI (converted)): 100 µM; TGI (HCT-116): > 100 µM; GI50 (HCT-116; read-out: GI50): 30 µM; CC50 (HCT-116; [5]): > 100 µM; GI50 (HCT-116; read-out: pGI50 (converted)): 30.2 µM; CC50 (HCT-116; [6]): 100 µM; TGI ([1]; RXF 631): > 100 µM; GI50 ([1]; RXF 631, read-out: GI50): 25 µM; CC50 ([1]; RXF 631, read-out: LC50 (the source's name)): 5100 µM; GI50 ([1]; RXF 631, read-out: pGI50 (converted)): 24.5 µM; CC50 ([1]; RXF 631, read-out: pLC50 (the source's name) (converted)): 100 µM; GI50 (KM12; read-out: GI50): 42 µM; CC50 (KM12; [5]): 100 µM; TGI (KM12; read-out: TGI): > 100 µM; GI50 (KM12; read-out: pGI50 (converted)): 41.7 µM; CC50 (KM12; [6]): 100 µM; TGI (KM12; read-out: pTGI (converted)): 100 µM; TGI (U-251): > 100 µM; GI50 (U-251; read-out: GI50): 36 µM; CC50 (U-251; [5]): > 100 µM; GI50 (U-251; read-out: pGI50 (converted)): 36.3 µM; GI50 (MCF7; read-out: GI50): 24 µM; CC50 (MCF7; [5]): > 100 µM; TGI (MCF7; read-out: TGI): 93 µM; GI50 (MCF7; read-out: pGI50 (converted)): 24 µM; CC50 (MCF7; [6]): 100 µM; TGI (MCF7; read-out: pTGI (converted)): 93.3 µM; GI50 (DMS-114; read-out: GI50): 10 µM; CC50 (DMS-114; [5]): > 100 µM; TGI (DMS-114; read-out: TGI): 57 µM; GI50 (DMS-114; read-out: pGI50 (converted)): 10 µM; TGI (DMS-114; read-out: pTGI (converted)): 57.5 µM; GI50 ([2]; BSY-1, read-out: GI50): 30 µM; CC50 ([2]; BSY-1, read-out: LC50 (the source's name)): > 100 µM; TGI ([2]; BSY-1, read-out: TGI): > 100 µM; GI50 ([2]; BSY-1, read-out: pGI50 (converted)): 30.2 µM; CC50 ([2]; BSY-1, read-out: pLC50 (the source's name) (converted)): 100 µM; TGI ([2]; BSY-1, read-out: pTGI (converted)): 100 µM; GI50 ([3]; read-out: GI50): 72 µM; CC50 [3, 5]: > 100 µM; TGI ([3]; read-out: TGI): > 100 µM; GI50 ([3]; read-out: pGI50 (converted)): 72.4 µM; TGI ([3]; read-out: pTGI (converted)): 100 µM; GI50 ([4]; MKN-1, read-out: GI50): 49 µM; CC50 ([4]; MKN-1, read-out: LC50 (the source's name)): > 100 µM; TGI ([4]; MKN-1, read-out: TGI): > 100 µM; GI50 ([4]; MKN-1, read-out: pGI50 (converted)): 49 µM; CC50 ([4]; MKN-1, read-out: pLC50 (the source's name) (converted)): 100 µM; TGI ([4]; MKN-1, read-out: pTGI (converted)): 100 µM; GI50 (PC-3; read-out: GI50): 20 µM; CC50 (PC-3; [5]): > 100 µM; TGI (PC-3; read-out: TGI): > 100 µM; GI50 (PC-3; read-out: pGI50 (converted)): 20 µM; TGI (PC-3; read-out: pTGI (converted)): 100 µM; GI50 (SF-295; read-out: GI50): 21 µM; CC50 (SF-295; [5]): > 100 µM; TGI (SF-295; read-out: TGI): > 100 µM; GI50 (SF-295; read-out: pGI50 (converted)): 21.4 µM; TGI (SF-295; read-out: pTGI (converted)): 100 µM; GI50 (NCI-H522; read-out: GI50): 15 µM; CC50 (NCI-H522; [5]): > 100 µM; TGI (NCI-H522; read-out: TGI): 49 µM; GI50 (NCI-H522; read-out: pGI50 (converted)): 15.1 µM; TGI (NCI-H522; read-out: pTGI (converted)): 49 µM; GI50 (DMS-273; read-out: GI50): 22 µM; CC50 (DMS-273; [5]): > 100 µM; TGI (DMS-273; read-out: TGI): > 100 µM; GI50 (DMS-273; read-out: pGI50 (converted)): 22.4 µM; TGI (DMS-273; read-out: pTGI (converted)): 100 µM; GI50 (ACHN; read-out: GI50): 28 µM; CC50 (ACHN; [5]): > 100 µM; TGI (ACHN; read-out: TGI): > 100 µM; GI50 (ACHN; read-out: pGI50 (converted)): 28.2 µM; TGI (ACHN; read-out: pTGI (converted)): 100 µM
